Patent US20250320193A1, “OXOISOINDOLINYL SUBSTITUTED PIPERIDINEDIONE DERIVATIVE AND USE THEREOF” (GLUETACS THERAPEUTICS (SHANGHAI) CO., LTD., priority 2022, published 2025)

Assays:
GSPT1 = GSPT1 (Homo sapiens (Human), UniProt P15170+Q96SW2); assay: Western blot, substrate protein expression in hPBMC: GSPT1; type: cell-based; settings: hPBMC, compound 500 nM, 24 hours, Western blot
Procedure, shortened: (§1)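 hPBMC, 1×10^6 cells/mL, 24 h compound exposure; RIPA lysis, BCA protein assay, SDS-PAGE, NC membrane immunoblot. Densitometry vs internal control → % protein remaining; degradation % = 100% − remaining; DC50 = conc. at 50% of DMSO band signal.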

IKZF1 = IKZF1 (Homo sapiens (Human), UniProt Q13422+Q96SW2); assay: Western blot, substrate protein expression in hPBMC: IKZF1; type: cell-based; settings: hPBMC, compound 500 nM, 24 hours, Western blot
IKZF1, sequence (Q13422 whole entry): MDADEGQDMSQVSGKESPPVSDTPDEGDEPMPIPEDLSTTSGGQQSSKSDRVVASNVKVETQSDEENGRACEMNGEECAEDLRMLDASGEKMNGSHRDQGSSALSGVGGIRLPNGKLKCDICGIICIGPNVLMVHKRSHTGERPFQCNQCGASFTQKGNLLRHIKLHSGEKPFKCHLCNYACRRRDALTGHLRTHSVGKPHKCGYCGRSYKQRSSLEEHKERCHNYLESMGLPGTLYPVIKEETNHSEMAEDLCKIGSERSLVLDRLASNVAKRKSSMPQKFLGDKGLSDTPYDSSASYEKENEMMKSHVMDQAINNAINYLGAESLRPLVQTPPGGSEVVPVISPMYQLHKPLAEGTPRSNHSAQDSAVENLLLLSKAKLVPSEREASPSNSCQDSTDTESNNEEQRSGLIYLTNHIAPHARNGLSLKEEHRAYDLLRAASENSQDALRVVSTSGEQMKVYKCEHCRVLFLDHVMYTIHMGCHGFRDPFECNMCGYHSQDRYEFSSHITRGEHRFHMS
IKZF1, sequence (Q96SW2 whole entry): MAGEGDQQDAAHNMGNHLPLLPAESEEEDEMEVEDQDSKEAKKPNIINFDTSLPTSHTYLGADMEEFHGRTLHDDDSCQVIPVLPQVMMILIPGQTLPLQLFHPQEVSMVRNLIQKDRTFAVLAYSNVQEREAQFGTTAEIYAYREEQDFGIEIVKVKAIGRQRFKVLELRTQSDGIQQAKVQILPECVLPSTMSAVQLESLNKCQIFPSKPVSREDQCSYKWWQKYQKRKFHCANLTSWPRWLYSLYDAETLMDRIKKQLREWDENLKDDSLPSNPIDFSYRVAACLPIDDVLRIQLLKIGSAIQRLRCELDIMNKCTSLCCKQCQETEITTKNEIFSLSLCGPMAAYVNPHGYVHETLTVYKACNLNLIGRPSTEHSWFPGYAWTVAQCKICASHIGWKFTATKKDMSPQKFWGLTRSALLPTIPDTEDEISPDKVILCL
IKZF1, sequence (Q16531 whole entry partner): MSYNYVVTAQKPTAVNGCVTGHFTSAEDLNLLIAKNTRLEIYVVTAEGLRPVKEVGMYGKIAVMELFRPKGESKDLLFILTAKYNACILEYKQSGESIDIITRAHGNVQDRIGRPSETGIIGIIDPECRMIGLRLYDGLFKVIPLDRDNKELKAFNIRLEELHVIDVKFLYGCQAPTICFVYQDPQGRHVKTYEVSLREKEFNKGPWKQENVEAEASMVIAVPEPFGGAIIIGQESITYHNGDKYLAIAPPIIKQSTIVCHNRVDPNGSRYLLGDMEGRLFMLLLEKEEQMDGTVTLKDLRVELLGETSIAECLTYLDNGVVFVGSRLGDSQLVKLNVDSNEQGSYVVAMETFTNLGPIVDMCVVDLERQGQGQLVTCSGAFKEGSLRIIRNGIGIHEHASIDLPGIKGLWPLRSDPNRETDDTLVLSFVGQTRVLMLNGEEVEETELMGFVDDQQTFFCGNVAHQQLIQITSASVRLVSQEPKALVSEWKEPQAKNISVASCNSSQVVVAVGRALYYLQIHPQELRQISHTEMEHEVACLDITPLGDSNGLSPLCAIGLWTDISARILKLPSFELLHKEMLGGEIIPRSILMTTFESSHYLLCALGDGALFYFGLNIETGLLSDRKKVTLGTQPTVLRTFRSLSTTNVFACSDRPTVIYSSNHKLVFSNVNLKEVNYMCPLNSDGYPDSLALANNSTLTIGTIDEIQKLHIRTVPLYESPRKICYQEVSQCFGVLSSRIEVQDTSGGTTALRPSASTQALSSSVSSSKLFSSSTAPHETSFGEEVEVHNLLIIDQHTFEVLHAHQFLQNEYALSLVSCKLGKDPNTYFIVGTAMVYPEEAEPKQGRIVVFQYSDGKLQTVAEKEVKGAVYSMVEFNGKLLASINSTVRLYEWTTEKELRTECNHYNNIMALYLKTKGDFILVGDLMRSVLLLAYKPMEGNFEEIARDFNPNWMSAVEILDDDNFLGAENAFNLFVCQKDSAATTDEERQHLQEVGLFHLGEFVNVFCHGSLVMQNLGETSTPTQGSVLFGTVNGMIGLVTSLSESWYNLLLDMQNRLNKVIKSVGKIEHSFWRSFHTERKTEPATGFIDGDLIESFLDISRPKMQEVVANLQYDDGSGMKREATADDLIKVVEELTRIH
Procedure, shortened: as §1

IKZF3 = IKZF3 (Homo sapiens (Human), UniProt Q96SW2+Q9UKT9); assay: Western blot, substrate protein expression in hPBMC: IKZF3; type: cell-based; settings: hPBMC, compound 500 nM, 24 hours, Western blot
IKZF3, sequence (Q9UKT9 whole entry): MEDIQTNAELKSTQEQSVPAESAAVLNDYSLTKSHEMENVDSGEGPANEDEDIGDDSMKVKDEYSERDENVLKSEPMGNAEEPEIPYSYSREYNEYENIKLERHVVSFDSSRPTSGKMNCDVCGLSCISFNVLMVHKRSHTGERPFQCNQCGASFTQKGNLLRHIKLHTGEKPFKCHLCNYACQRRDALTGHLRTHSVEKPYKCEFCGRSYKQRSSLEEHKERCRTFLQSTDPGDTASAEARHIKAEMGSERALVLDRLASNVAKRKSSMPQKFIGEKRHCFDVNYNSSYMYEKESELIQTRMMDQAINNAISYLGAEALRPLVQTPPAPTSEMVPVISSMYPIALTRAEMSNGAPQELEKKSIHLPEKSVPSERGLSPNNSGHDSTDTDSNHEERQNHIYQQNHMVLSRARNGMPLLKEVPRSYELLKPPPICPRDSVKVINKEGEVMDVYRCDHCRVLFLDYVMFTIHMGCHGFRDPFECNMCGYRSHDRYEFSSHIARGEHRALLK
IKZF3, sequence (Q96SW2 whole entry): as the sequence (Q96SW2 whole entry) above
IKZF3, sequence (Q16531 whole entry partner): as the sequence (Q16531 whole entry partner) above
Procedure, shortened: as §1

[1] = molecular target: human Cereblon WT GST-tagged protein (Homo sapiens (Human), UniProt Q96SW2); assay: CRBN-binding affinity, HTRF (CEREBLON BINDING kit, CISBIO); settings: HTRF inhibitory activity
human Cereblon WT GST-tagged protein, sequence (Q96SW2 whole entry): as the sequence (Q96SW2 whole entry) above
Procedure, shortened: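 HTRF competition format: test compound displaces Thalidomide-Red from GST-tagged human Cereblon WT, detected with a Eu-labelled anti-GST antibody. Percent CRBN binding inhibition was derived from the 620 nm signal, normalized to solvent-control and protein-free blank wells.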

GSPT1, sequence (P15170 whole entry): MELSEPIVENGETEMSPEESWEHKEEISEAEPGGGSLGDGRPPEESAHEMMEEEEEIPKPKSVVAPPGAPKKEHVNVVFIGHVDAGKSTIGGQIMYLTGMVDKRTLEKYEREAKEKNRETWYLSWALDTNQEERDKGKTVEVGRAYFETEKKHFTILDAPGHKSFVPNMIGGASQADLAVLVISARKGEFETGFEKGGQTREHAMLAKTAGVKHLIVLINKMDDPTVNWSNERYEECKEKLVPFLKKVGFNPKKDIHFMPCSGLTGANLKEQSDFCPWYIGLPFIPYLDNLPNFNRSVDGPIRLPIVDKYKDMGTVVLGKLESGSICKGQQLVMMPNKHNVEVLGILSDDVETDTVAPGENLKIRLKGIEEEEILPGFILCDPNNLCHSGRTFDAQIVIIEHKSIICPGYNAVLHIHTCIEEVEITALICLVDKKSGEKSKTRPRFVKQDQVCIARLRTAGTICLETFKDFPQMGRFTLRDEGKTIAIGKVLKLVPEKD
GSPT1, sequence (Q96SW2 whole entry): as the sequence (Q96SW2 whole entry) above
GSPT1, sequence (Q16531 whole entry partner): as the sequence (Q16531 whole entry partner) above

| SMILES | IC50 [1] | substrate protein remaining % GSPT1 (GSPT1) | substrate protein remaining % IKZF1 (IKZF1) | substrate protein remaining % IKZF3 (IKZF3) |
| --- | --- | --- | --- | --- |
| O=C1CCC(N2Cc3cc(C(=O)N4CCN(C(c5ccc(Cl)cc5)c5ccc(Cl)cc5)CC4)ccc3C2=O)C(=O)N1 (stereo not shown) [GT-05886, 3-(5-(4-(bis(4-chlorophenyl)methyl)piperazine-1-carbonyl)-1-oxoisoindolin-2-yl)piperidine-2,6-dione] | 1 to 1.9 µM | A (A represents 0% ≤ substrate protein remaining % ≤ 50%) | B (B represents substrate protein remaining % > 50%) | A (A represents 0% ≤ substrate protein remaining % ≤ 50%) |
| O=C1CCC(N2Cc3c(CN4CC5(CCN(C(c6ccccc6)c6ccccc6)CC5)C4)cccc3C2=O)C(=O)N1 (stereo not shown) [GT-05905, 3-(4-((7-benzhydryl-2,7-diazaspiro[3.5]nonan-2-yl)methyl)-1-oxoisoindolin-2-yl)piperidine-2,6-dione] | 0.5 to 1 µM | A (A represents 0% ≤ substrate protein remaining % ≤ 50%) | B (B represents substrate protein remaining % > 50%) | B (B represents substrate protein remaining % > 50%) |
| CC1CN(C(c2ccccc2)c2ccccc2)CC(C)N1C(=O)c1ccc2c(c1)C(=O)N(C1CCC(=O)NC1=O)C2=O (stereo not shown) [GT-05922, 5-(4-benzhydryl-2,6-dimethylpiperazine-1-carbonyl)-2-(2,6-dioxopiperidin-3-yl) isoindoline-1,3-dione] | 1 to 1.9 µM | A (A represents 0% ≤ substrate protein remaining % ≤ 50%) | B (B represents substrate protein remaining % > 50%) | B (B represents substrate protein remaining % > 50%) |
| O=C1CCC(N2Cc3cc(C(=O)N4CCC(N(c5ccccc5)c5ccccn5)CC4)cc(F)c3C2=O)C(=O)N1 (stereo not shown) [GT-05924, 3-(7-fluoro-1-oxo-5-(4-(phenyl(pyridin-2-yl)amino)piperidine-1-carbonyl)isoindolin-2-yl)piperidine-2,6-dione] | 0.5 to 1 µM | A (A represents 0% ≤ substrate protein remaining % ≤ 50%) | B (B represents substrate protein remaining % > 50%) | B (B represents substrate protein remaining % > 50%) |

The next lines start with results.

| IC50 [1] | SMILES | substrate protein remaining % GSPT1 (GSPT1) | substrate protein remaining % IKZF1 (IKZF1) | substrate protein remaining % IKZF3 (IKZF3) |
| --- | --- | --- | --- | --- |
| 0.5 to 1 µM | O=C1CCC(N2Cc3cc(C(=O)N4CCN(C(c5ccc(F)cc5)c5ccc(F)cc5)CC4)cc(F)c3C2=O)C(=O)N1 (stereo not shown) [GT-05882, 3-(5-(4-(bis(4-fluorophenyl)methyl)piperazine-1-carbonyl)-7-fluoro-1-oxoisoindolin-2-yl)piperidine-2,6-dione] | A (A represents 0% ≤ substrate protein remaining % ≤ 50%) | B (B represents substrate protein remaining % > 50%) | B (B represents substrate protein remaining % > 50%) |
| < 0.5 µM | CC1CN(C(c2ccccc2)c2ccccc2)CC(C)N1C(=O)c1ccc2c(c1)CN(C1CCC(=O)NC1=O)C2=O (stereo not shown) [GT-05920, 3-(5-(4-benzhydryl-2,6-dimethylpiperazine-1-carbonyl)-1-oxoisoindolin-2-yl)piperidine-2,6-dione] | A (A represents 0% ≤ substrate protein remaining % ≤ 50%) | B (B represents substrate protein remaining % > 50%) | B (B represents substrate protein remaining % > 50%) |
| < 0.5 µM | O=C1CCC(N2Cc3cc(C(=O)N4CCC(N(c5ccccc5)c5ccccn5)CC4)ccc3C2=O)C(=O)N1 (stereo not shown) [GT-05923, 3-(1-oxo-5-(4-(phenyl(pyridin-2-yl)amino)piperidine-1-carbonyl)isoindolin-2-yl)piperidine-2,6-dione] | A (A represents 0% ≤ substrate protein remaining % ≤ 50%) | B (B represents substrate protein remaining % > 50%) | B (B represents substrate protein remaining % > 50%) |
